Source: article PMC8333062, “Chemical tools for epichaperome-mediated interactome dysfunctions of the central nervous system” (Nature Communications, 2021)

Assays:
[1] = Chronic administration toxicity; assay type: in vivo, B6C3F1 mice; conditions: 75 mg/kg IV 3 times per week, approximately 24 weeks
CYP3A4 = biological target: T1, CYP3A4 (Homo sapiens, UniProt P08684); experiment: Cytochrome P450 profiling, troleandomycin; assay type: in vitro ADME; conditions: for % PU-HZ151 remaining: Troleandomycin
T1 construct: tissue Life Technologies HMMCPL; host or cells: human liver microsomes
Protocol: (§1) To identify cytochrome P450 enzymes responsible for PU-HZ151’s metabolism in human liver microsomes the following procedure was followed. Phosphate buffer (100 mM, pH 7.4) was prepared monthly and stored at 4 °C. Frozen stock solutions of human liver microsomes (Life Technologies; Cat# HMMCPL) were used once after thawing and were not refrozen. NADPH stock solution (50 mM) in distilled water was prepared fresh daily. […] The stock solutions of these P450 inhibitors were prepared in DMSO. […] The concentration of the chemical inhibitors used in the assay were furafylline (10 μM), tranylcypromine (2 μM), ketoconazole (1 μM), troleandomycin (20 μM), orphenadrine (50 μM), montelukast (3 μM), sulfaphenazole (10 μM), benzylnirvanol (1 μM), quinidine (1 μM), and 1-aminobenzotriazole (1 mM) for all the P450 enzymes. Timing of the reactions was started following the addition of NADPH/magnesium chloride mix and PU-HZ151. Time-dependent chemical inhibitors (furafylline, troleandomycin, orphenadrine, and 1-aminobenzotriazole) were preincubated with human microsomes in the presence of NADPH and magnesium chloride for 15 min before the addition of PU-HZ151 and timing of reactions was started after addition of PU-HZ151. […] Following brief vortexing and centrifugation, a 200 µL aliquot of the supernatant was transferred to a tube, and 10 µL of haloperidol (1 µg mL^−1) as internal standard was added. Following brief vortexing and centrifugation, 50 µL of supernatant was added to a 96-well plate for subsequent LC-MS/MS analysis. PU-HZ151 was similarly tested as above in the absence of CYP inhibitors for comparative purposes. All samples were assayed in duplicate. […] This was similarly performed for incubations of PU-HZ151 performed in the absence of CYP inhibitor.

CYP2C8 = biological target: T2, CYP2C8 (Homo sapiens, UniProt P10632); experiment: Cytochrome P450 profiling, montelukast; assay type: in vitro ADME; conditions: for % PU-HZ151 remaining: Montelukast
T2 construct: tissue Life Technologies HMMCPL; host or cells: human liver microsomes
T2 sequence (P10632 1-490): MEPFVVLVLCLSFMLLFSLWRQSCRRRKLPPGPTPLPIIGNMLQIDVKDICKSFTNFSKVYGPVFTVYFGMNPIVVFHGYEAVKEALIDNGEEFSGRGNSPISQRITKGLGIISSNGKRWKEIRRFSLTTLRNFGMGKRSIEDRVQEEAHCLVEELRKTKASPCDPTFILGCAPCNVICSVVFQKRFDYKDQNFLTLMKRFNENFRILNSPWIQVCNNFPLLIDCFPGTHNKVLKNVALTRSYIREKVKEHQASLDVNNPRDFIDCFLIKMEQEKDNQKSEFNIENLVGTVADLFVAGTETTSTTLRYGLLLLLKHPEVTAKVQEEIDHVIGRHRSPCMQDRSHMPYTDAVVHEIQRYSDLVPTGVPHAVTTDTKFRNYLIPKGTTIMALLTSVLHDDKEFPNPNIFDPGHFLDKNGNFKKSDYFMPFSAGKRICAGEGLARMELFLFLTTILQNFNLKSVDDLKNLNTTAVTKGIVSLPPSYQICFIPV
Protocol: as §1

CYP2C19 = biological target: T3, CYP2C19 (Homo sapiens, UniProt P33261); experiment: Cytochrome P450 profiling, benzylnirvanol; assay type: in vitro ADME; conditions: for % PU-HZ151 remaining: Benzylnirvanol
T3 construct: PU-HZ151 (1 µM) was incubated with human liver microsomes (0.5 mg protein mL^−1); tissue Life Technologies HMMCPL; host or cells: human liver microsomes
Protocol: as §1

normal neurons = assay type: cell-based; conditions: constant exposure of 72 hours
CYP2C9 = biological target: T4, CYP2C9 (Homo sapiens, UniProt P11712); experiment: Cytochrome P450 profiling, sulfaphenazole; assay type: in vitro ADME; conditions: for % PU-HZ151 remaining: Sulfaphenazole
T4 construct: PU-HZ151 (1 µM) was incubated with human liver microsomes (0.5 mg protein mL^−1); tissue Life Technologies HMMCPL; host or cells: human liver microsomes
Protocol: as §1

T1 sequence (P08684 whole entry): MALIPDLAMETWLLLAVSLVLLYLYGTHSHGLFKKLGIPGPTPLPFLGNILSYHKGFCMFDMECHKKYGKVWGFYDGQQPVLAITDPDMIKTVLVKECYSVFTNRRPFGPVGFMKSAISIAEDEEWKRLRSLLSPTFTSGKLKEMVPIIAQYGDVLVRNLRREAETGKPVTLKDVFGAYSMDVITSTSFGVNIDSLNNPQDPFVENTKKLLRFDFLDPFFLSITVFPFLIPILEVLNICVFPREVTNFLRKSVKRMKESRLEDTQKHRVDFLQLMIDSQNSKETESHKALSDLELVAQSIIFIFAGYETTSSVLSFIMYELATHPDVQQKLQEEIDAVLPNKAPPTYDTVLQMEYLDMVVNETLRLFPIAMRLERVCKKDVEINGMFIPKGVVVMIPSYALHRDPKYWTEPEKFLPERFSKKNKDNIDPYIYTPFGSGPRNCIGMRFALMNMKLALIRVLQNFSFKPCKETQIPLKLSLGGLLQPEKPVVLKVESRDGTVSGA
T4 sequence (P11712 whole entry): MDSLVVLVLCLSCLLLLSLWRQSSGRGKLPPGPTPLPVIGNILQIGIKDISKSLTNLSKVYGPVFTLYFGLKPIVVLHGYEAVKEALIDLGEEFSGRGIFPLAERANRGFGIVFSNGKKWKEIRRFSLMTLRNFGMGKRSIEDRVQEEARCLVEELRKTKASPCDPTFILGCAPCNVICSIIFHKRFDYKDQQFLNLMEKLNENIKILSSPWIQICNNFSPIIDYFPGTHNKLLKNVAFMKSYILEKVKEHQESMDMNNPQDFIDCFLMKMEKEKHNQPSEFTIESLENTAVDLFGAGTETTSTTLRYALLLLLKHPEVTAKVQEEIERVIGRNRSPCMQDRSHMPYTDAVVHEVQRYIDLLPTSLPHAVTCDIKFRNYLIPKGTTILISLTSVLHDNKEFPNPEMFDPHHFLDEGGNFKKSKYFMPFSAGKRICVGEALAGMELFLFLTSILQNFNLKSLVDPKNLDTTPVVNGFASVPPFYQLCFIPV
T3 sequence (P33261 whole entry): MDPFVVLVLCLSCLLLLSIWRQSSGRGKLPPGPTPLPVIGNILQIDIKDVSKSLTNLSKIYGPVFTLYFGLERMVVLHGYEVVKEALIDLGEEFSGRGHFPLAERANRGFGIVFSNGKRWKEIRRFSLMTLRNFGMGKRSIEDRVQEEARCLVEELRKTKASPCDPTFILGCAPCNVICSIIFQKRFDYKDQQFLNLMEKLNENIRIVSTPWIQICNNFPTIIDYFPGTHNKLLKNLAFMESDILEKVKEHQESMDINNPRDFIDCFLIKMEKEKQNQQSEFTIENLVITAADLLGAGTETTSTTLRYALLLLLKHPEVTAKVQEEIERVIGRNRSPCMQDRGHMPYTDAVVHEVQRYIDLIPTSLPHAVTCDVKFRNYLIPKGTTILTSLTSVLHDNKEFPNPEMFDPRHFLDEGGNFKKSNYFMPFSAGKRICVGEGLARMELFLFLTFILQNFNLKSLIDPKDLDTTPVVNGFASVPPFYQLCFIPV

SMILES: CC(C)(C)CNCCn1c(Sc2cc3c(cc2I)OCO3)nc2c(N)ncnc21 [Compound 85]
- chronic toxicity [1]: No
- % PU-HZ151 remaining (CYP3A4; 15 min): 79.8%
- % PU-HZ151 remaining (CYP3A4; 30 min): 66.9%
- % PU-HZ151 remaining (CYP3A4; 60 min): 50.9%
- inhibition of PU-HZ151 metabolism (CYP3A4; troleandomycin): 40%
- % PU-HZ151 remaining (CYP2C8; 15 min): 59.7%
- % PU-HZ151 remaining (CYP2C8; 30 min): 42.1%
- % PU-HZ151 remaining (CYP2C8; 60 min): 22.4%
- inhibition of PU-HZ151 metabolism (CYP2C8; montelukast): 6%
- % PU-HZ151 remaining (CYP2C19; 15 min): 59.2%
- % PU-HZ151 remaining (CYP2C19; 30 min): 39.3%
- % PU-HZ151 remaining (CYP2C19; 60 min): 20.2%
- inhibition of PU-HZ151 metabolism (CYP2C19; benzylnirvanol): 4%
- concentration needed to induce toxicity (normal neurons): 100 µM
- % PU-HZ151 remaining (CYP2C9; 15 min): 70.5%
- % PU-HZ151 remaining (CYP2C9; 30 min): 54.1%
- % PU-HZ151 remaining (CYP2C9; 60 min): 36.5%
- inhibition of PU-HZ151 metabolism (CYP2C9; sulfaphenazole): 23%
